Measurements taken from patent publication US20240116985A1, “STAPLED PEPTIDES AND METHODS THEREOF” (priority 2020, published 2024).

Assay: CHI Log D procedure
Assay type: physicochemical

SMILES | chromatographic logD (pH 7.4, CHI Log D) | CHI Log D (pH 7.4) | further results
CC(=O)N[C@@H](Cc1ccccc1)C(=O)N[C@@H](CC(=O)O)C(=O)N[C@@H](C)C(=O)N[C@]1(C)CCCCCCC=CCOC(=O)N2CC[C@@](C(=O)N[C@@H](Cc3ccccn3)C(=O)N[C@@H](Cc3c[nH]c4ccccc34)C(=O)N[C@@H](CCC(N)=O)C(N)=O)(C2)NC(=O)[C@H](C(C)C)NC(=O)[C@H](Cc2ccccc2)NC(=O)[C@H](C)NC(=O)[C@H](C)NC(=O)[C@H](CC(=O)O)NC(=O)[C@H](CC(=O)O)NC1=O (single isomer, unassigned) [I-80, Ac-Phe-Asp-Ala-R8-Asp-Asp-Ala-Ala-Phe-Val-PyrS-2PyrA-Trp-Gln-NH2] | 1.04 | – | –
CC(=O)N[C@@H](Cc1ccccc1)C(=O)N[C@@H](CC(=O)O)C(=O)N[C@@H](C)C(=O)N[C@]1(C)CCCCCCC=CCOC(=O)N2CC[C@@](C(=O)N[C@@H](Cc3ccc(C(N)=O)cc3)C(=O)N[C@@H](Cc3c[nH]c4ccccc34)C(=O)N[C@@H](CCC(N)=O)C(N)=O)(C2)NC(=O)[C@H](C(C)C)NC(=O)[C@H](Cc2ccccc2)NC(=O)[C@H](C)NC(=O)[C@H](C)NC(=O)[C@H](CC(=O)O)NC(=O)[C@H](CC(=O)O)NC1=O (single isomer, unassigned) [I-90, Ac-Phe-Asp-Ala-R8-Asp-Asp-Ala-Ala-Phe-Val-PyrS-4CBMF-Trp-Gln-NH2] | 0.958 | – | –
CC(=O)N[C@@H](Cc1ccccc1)C(=O)N[C@@H](CC(=O)O)C(=O)N[C@@H](C)C(=O)N[C@]1(C)CCCCCCC=CCOC(=O)N2CC[C@@](C(=O)N[C@@H](CC3CCCC3)C(=O)N[C@@H](Cc3c[nH]c4ccccc34)C(=O)N[C@@H](CCC(N)=O)C(N)=O)(C2)NC(=O)[C@H](C(C)C)NC(=O)[C@H](Cc2ccccc2)NC(=O)[C@H](C)NC(=O)[C@H](C)NC(=O)[C@H](CC(=O)O)NC(=O)[C@H](CC(=O)O)NC1=O (single isomer, unassigned) [I-93, Ac-Phe-Asp-Ala-R8-Asp-Asp-Ala-Ala-Phe-Val-PyrS-CypA-Trp-Gln-NH2] | 1.32 | – | –
CC(=O)N[C@@H](Cc1ccccc1)C(=O)N[C@@H](CC(=O)O)C(=O)N[C@@H](C)C(=O)N[C@]1(C)CCCCCCC=CCOC(=O)N2CC[C@@](C(=O)N[C@@H](Cc3ccccc3)C(=O)N[C@@H](Cc3c[nH]c4ccccc34)C(=O)N[C@@H](CCC(N)=O)C(N)=O)(C2)NC(=O)[C@H](C(C)C)NC(=O)[C@H](CC2CCCC2)NC(=O)[C@H](C)NC(=O)[C@H](C)NC(=O)[C@H](CC(=O)O)NC(=O)[C@H](CC(=O)O)NC1=O (single isomer, unassigned) [I-96, Ac-Phe-Asp-Ala-R8-Asp-Asp-Ala-Ala-CypA-Val-PyrS-Phe-Trp-Gln-NH2] | – | 1.343 | –
CC(=O)N[C@@H](Cc1ccccc1)C(=O)N[C@@H](CC(=O)O)C(=O)N[C@@H](C)C(=O)N[C@]1(C)CCCCCCC=CCOC(=O)N2CC[C@@](C(=O)N[C@@H](Cc3ccccc3)C(=O)N[C@@H](Cc3c[nH]c4ccccc34)C(=O)N[C@@H](CCC(N)=O)C(N)=O)(C2)NC(=O)[C@H](C(C)C)NC(=O)[C@H](Cc2ccccc2)NC(=O)[C@H](C)NC(=O)[C@H](C)NC(=O)[C@H](CCc2ccccc2)NC(=O)[C@H](CC(=O)O)NC1=O (single isomer, unassigned) [I-98, Ac-Phe-Asp-Ala-R8-Asp-hPhe-Ala-Ala-Phe-Val-PyrS-Phe-Trp-Gln-NH2] | – | – | chromatographic logD (pH 7.4): 2.08
CC(=O)N[C@@H](Cc1ccccc1)C(=O)N[C@@H](CC(=O)O)C(=O)N[C@@H](C)C(=O)N[C@]1(C)CCCCCCC=CCOC(=O)N2CC[C@@](C(=O)N[C@@H](Cc3ccccc3)C(=O)N[C@@H](Cc3c[nH]c4ccccc34)C(=O)N[C@@H](CCC(N)=O)C(N)=O)(C2)NC(=O)[C@H](C(C)C)NC(=O)[C@H](Cc2ccccc2)NC(=O)[C@H](C)NC(=O)[C@H](C)NC(=O)[C@H](Cc2ccccc2)NC(=O)[C@H](CC(=O)O)NC1=O (single isomer, unassigned) [I-99, Ac-Phe-Asp-Ala-R8-Asp-Phe-Ala-Ala-Phe-Val-PyrS-Phe-Trp-Gln-NH2] | – | – | chromatographic logD (pH 7.4): 1.99
COc1cccc(C[C@H](NC(=O)[C@]23CCN(C2)C(=O)OCC=CCCCCCC[C@@](C)(NC(=O)[C@H](C)NC(=O)[C@H](CC(=O)O)NC(=O)[C@H](Cc2ccccc2)NC(C)=O)C(=O)N[C@@H](CC(=O)O)C(=O)N[C@@H](CC(=O)O)C(=O)N[C@@H](C)C(=O)N[C@@H](C)C(=O)N[C@@H](Cc2ccccc2)C(=O)N[C@@H](C(C)C)C(=O)N3)C(=O)N[C@@H](Cc2c[nH]c3ccccc23)C(=O)N[C@@H](CCC(N)=O)C(N)=O)c1 (single isomer, unassigned) [I-101, Ac-Phe-Asp-Ala-R8-Asp-Asp-Ala-Ala-Phe-Val-PyrS-3OMeF-Trp-Gln-NH2] | 1.33 | – | –
COc1cccc(C[C@H](NC(=O)[C@]23CCN(C2)C(=O)OCC=CCCCCCC[C@@](C)(NC(=O)[C@H](C)NC(=O)[C@H](CC(=O)O)NC(=O)[C@H](Cc2ccccc2)NC(C)=O)C(=O)N[C@@H](CC(=O)O)C(=O)N[C@@H](CC(=O)O)C(=O)N[C@@H](C)C(=O)N[C@@H](C)C(=O)N[C@@H](Cc2ccccc2)C(=O)N[C@@H](C(C)C)C(=O)N3)C(=O)N[C@@H](Cc2c[nH]c3ccccc23)C(=O)N[C@@H](CCC(N)=O)C(N)=O)c1 (single isomer, unassigned) [I-102, Ac-Phe-Asp-Ala-R8-Asp-Asp-Ala-Ala-Phe-Val-PyrS-3OMeF-Trp-Gln-NH2] | – | 1.274 | –
CC(=O)N[C@@H](Cc1ccccc1)C(=O)N[C@@H](CC(=O)O)C(=O)N[C@@H](C)C(=O)N[C@]1(C)CCCCCCC=CCOC(=O)N2CC[C@@](C(=O)N[C@@H](Cc3ccccc3C(N)=O)C(=O)N[C@@H](Cc3c[nH]c4ccccc34)C(=O)N[C@@H](CCC(N)=O)C(N)=O)(C2)NC(=O)[C@H](C(C)C)NC(=O)[C@H](Cc2ccccc2)NC(=O)[C@H](C)NC(=O)[C@H](C)NC(=O)[C@H](CC(=O)O)NC(=O)[C@H](CC(=O)O)NC1=O (single isomer, unassigned) [I-105, Ac-Phe-Asp-Ala-R8-Asp-Asp-Ala-Ala-Phe-Val-PyrS-2CBMF-Trp-Gln-NH2] | 1.03 | – | –
CC(=O)N[C@@H](Cc1ccccc1)C(=O)N[C@@H](CC(=O)O)C(=O)N[C@@H](C)C(=O)N[C@]1(C)CCCCCCC=CCOC(=O)N2CC[C@@](C(=O)N[C@@H](Cc3ccccc3C(N)=O)C(=O)N[C@@H](Cc3c[nH]c4ccccc34)C(=O)N[C@@H](CCC(N)=O)C(N)=O)(C2)NC(=O)[C@H](C(C)C)NC(=O)[C@H](Cc2ccccc2)NC(=O)[C@H](C)NC(=O)[C@H](C)NC(=O)[C@H](CC(=O)O)NC(=O)[C@H](CC(=O)O)NC1=O (single isomer, unassigned) [I-106, Ac-Phe-Asp-Ala-R8-Asp-Asp-Ala-Ala-Phe-Val-PyrS-2CBMF-Trp-Gln-NH2] | – | 1.038 | –

Further lines, with some results ahead:

chromatographic logD (pH 7.4, CHI Log D) | CHI Log D (pH 7.4) | SMILES | further results
1 | – | CC(=O)N[C@@H](Cc1ccccc1)C(=O)N[C@@H](CC(=O)O)C(=O)N[C@@H](C)C(=O)N[C@]1(C)CCCCCCC=CCOC(=O)N2CC[C@@](C(=O)N[C@@H](Cc3cccnc3)C(=O)N[C@@H](Cc3c[nH]c4ccccc34)C(=O)N[C@@H](CCC(N)=O)C(N)=O)(C2)NC(=O)[C@H](C(C)C)NC(=O)[C@H](Cc2ccccc2)NC(=O)[C@H](C)NC(=O)[C@H](C)NC(=O)[C@H](CC(=O)O)NC(=O)[C@H](CC(=O)O)NC1=O (single isomer, unassigned) [I-82, Ac-Phe-Asp-Ala-R8-Asp-Asp-Ala-Ala-Phe-Val-PyrS-3PyrA-Trp-Gln-NH2] | –
– | 1.032 | CC(=O)N[C@@H](Cc1ccccc1)C(=O)N[C@@H](CC(=O)O)C(=O)N[C@@H](C)C(=O)N[C@]1(C)CCCCCCC=CCOC(=O)N2CC[C@@](C(=O)N[C@@H](Cc3cccnc3)C(=O)N[C@@H](Cc3c[nH]c4ccccc34)C(=O)N[C@@H](CCC(N)=O)C(N)=O)(C2)NC(=O)[C@H](C(C)C)NC(=O)[C@H](Cc2ccccc2)NC(=O)[C@H](C)NC(=O)[C@H](C)NC(=O)[C@H](CC(=O)O)NC(=O)[C@H](CC(=O)O)NC1=O (single isomer, unassigned) [I-83, Ac-Phe-Asp-Ala-R8-Asp-Asp-Ala-Ala-Phe-Val-PyrS-3PyrA-Trp-Gln-NH2] | –
0.985 | – | CC(=O)N[C@@H](Cc1ccccc1)C(=O)N[C@@H](CC(=O)O)C(=O)N[C@@H](C)C(=O)N[C@]1(C)CCCCCCC=CCOC(=O)N2CC[C@@](C(=O)N[C@@H](Cc3ccncc3)C(=O)N[C@@H](Cc3c[nH]c4ccccc34)C(=O)N[C@@H](CCC(N)=O)C(N)=O)(C2)NC(=O)[C@H](C(C)C)NC(=O)[C@H](Cc2ccccc2)NC(=O)[C@H](C)NC(=O)[C@H](C)NC(=O)[C@H](CC(=O)O)NC(=O)[C@H](CC(=O)O)NC1=O (single isomer, unassigned) [I-84, Ac-Phe-Asp-Ala-R8-Asp-Asp-Ala-Ala-Phe-Val-PyrS-4PyrA-Trp-Gln-NH2] | –
– | 0.998 | CC(=O)N[C@@H](Cc1ccccc1)C(=O)N[C@@H](CC(=O)O)C(=O)N[C@@H](C)C(=O)N[C@]1(C)CCCCCCC=CCOC(=O)N2CC[C@@](C(=O)N[C@@H](Cc3ccncc3)C(=O)N[C@@H](Cc3c[nH]c4ccccc34)C(=O)N[C@@H](CCC(N)=O)C(N)=O)(C2)NC(=O)[C@H](C(C)C)NC(=O)[C@H](Cc2ccccc2)NC(=O)[C@H](C)NC(=O)[C@H](C)NC(=O)[C@H](CC(=O)O)NC(=O)[C@H](CC(=O)O)NC1=O (single isomer, unassigned) [I-85, Ac-Phe-Asp-Ala-R8-Asp-Asp-Ala-Ala-Phe-Val-PyrS-4PyrA-Trp-Gln-NH2] | –
1.15 | – | CC(=O)N[C@@H](Cc1ccccc1)C(=O)N[C@@H](CC(=O)O)C(=O)N[C@@H](C)C(=O)N[C@]1(C)CCCCCCC=CCOC(=O)N2CC[C@@](C(=O)N[C@@H](Cc3ccccc3)C(=O)N[C@@H](Cc3c[nH]c4ccccc34)C(=O)N[C@@H](CCC(N)=O)C(N)=O)(C2)NC(=O)[C@H](C(C)C)NC(=O)[C@H](Cc2cccnc2)NC(=O)[C@H](C)NC(=O)[C@H](C)NC(=O)[C@H](CC(=O)O)NC(=O)[C@H](CC(=O)O)NC1=O (single isomer, unassigned) [I-87, Ac-Phe-Asp-Ala-R8-Asp-Asp-Ala-Ala-3PyrA-Val-PyrS-Phe-Trp-Gln-NH2] | –
– | 1.239 | CC(=O)N[C@@H](Cc1ccccc1)C(=O)N[C@@H](CC(=O)O)C(=O)N[C@@H](C)C(=O)N[C@]1(C)CCCCCCC=CCOC(=O)N2CC[C@@](C(=O)N[C@@H](Cc3ccccc3)C(=O)N[C@@H](Cc3c[nH]c4ccccc34)C(=O)N[C@@H](CCC(N)=O)C(N)=O)(C2)NC(=O)[C@H](C(C)C)NC(=O)[C@H](Cc2cccnc2)NC(=O)[C@H](C)NC(=O)[C@H](C)NC(=O)[C@H](CC(=O)O)NC(=O)[C@H](CC(=O)O)NC1=O (single isomer, unassigned) [I-88, Ac-Phe-Asp-Ala-R8-Asp-Asp-Ala-Ala-3PyrA-Val-PyrS-Phe-Trp-Gln-NH2] | –
